{"source": "patent US20260053811A1", "about": "“METHODS OF TREATING HYPERTENSION IN OBESE SUBJECTS” (Mineralys Therapeutics, Inc., priority 2022, published 2026)", "tested_on": "hypertensive subjects", "experiment": "Seated automated office blood pressure (AOBP) in randomized, placebo-controlled, dose-ranging study", "type": "in vivo, human", "conditions": "Part 1, 50 mg QD", "protocol": "A randomized, double-blinded, placebo-controlled, dose-ranging, multicenter study was conducted to evaluate the effect of orally administered Compound A HBr on blood pressure for the treatment of hypertension in male and female subjects ≥18 years of age.\nThe study consists of two parts. For enrollment into Part 1 of the study, a subject's value of plasma renin activity (PRA) must be ≤1 ng/mL/h based on morning measurement. If the value of PRA >1 ng/mL/h based on morning measurement, then subjects may be eligible to enter Part 2 of the study.\nFor Part 1, 163 enrolled subjects ≥18 years of age were randomized into 6 equal treatment groups (1:1:1:1:1:1) to 12.5 mg BID, 25 mg BID, 12.5 mg QD, 50 mg QD, 100 mg QD, or placebo. After a review of interim clinical data, the 2 lowest dose levels (12.5 mg QD and 12.5 mg BID) were stopped for future randomization due to a lack of consistent meaningful reduction of blood pressure, but the patients randomized to that point remained in the study through completion. Thus, after the review of interim clinical data, subjects were randomized into 4 equal treatment groups (1:1:1:1) to 25 mg BID, 50 mg QD, 100 mg QD, or placebo.\nFor Part 2, 36 enrolled subjects ≥18 years of age were randomized (5:1) to either 100 mg QD Compound A HBr or placebo such that the Compound A HBr treatment group consisted of approximately 30 subjects and the placebo treatment group will consist of approximately 6 subjects.\nSubjects orally administered the assigned study drug (Compound A HBr or placebo) according to the assigned dosing regimen for 8 weeks beginning on Study Day 1. All subjects in Part 1 (regardless of dosing group) received BID dosing to preserve the integrity of the blind; active drug is administered as the morning dose for all QD dose groups. Subjects returned to the research facility or were seen by the clinical investigator or approved home health care professional at the end of Study Weeks 1, 2, 3, 4, 5, 6, 7, and 8 (±2 days) for protocol-defined efficacy and safety assessments and procedures, assessment of adverse events (AEs), and confirmation of compliance with study drug usage. Subjects also completed a telephone visit and blood pressure (BP) check at home approximately 3 days post last dose of study drug. Subjects attended up to 14 full clinic visits, including a pre-Screening visit, a Screening/start of Placebo Run-in visit, a second visit during Placebo Run-in, a clinic visit to initiate the ABPM procedure, a Randomization visit, 8 weekly visits during double-blind treatment, and an end-of-study visit scheduled 4 weeks after the last study treatment for final efficacy and safety assessments.\nAn automated oscillometric sphygmomanometer device was used to measure the subjects' systolic and diastolic blood pressure in office after approximately 5 minutes of rest in the seated position.\nThe primary endpoint is the change in office-measured (mean of last 2 of 5 unattended measurements using an automated oscillometric sphygmomanometer device after approximately 5 minutes of rest in the seated position) systolic blood pressure (SBP) from baseline to the end of Study Week 8.\nSecondary endpoints of this study were: • (a) Change in 24-hour ambulatory blood pressure monitoring (ABPM) parameters (systolic and diastolic) from baseline to the end of Study Week 7. • (b) Change in office-measured SBP from baseline to the end of Study Weeks 1, 2, 3, 4, 5, 6, and 7. • (c) Change in office-measured diastolic blood pressure (DBP) from baseline to the end of Study Weeks 1, 2, 3, 4, 5, 6, 7, and 8. • (d) Proportion of subjects who achieve office-measured BP of ≤130/80 mm Hg by the end of Study Week 8."}
{"smiles": "CC(=O)N[C@H]1CC[C@H](NC(=O)CN2CCN(c3nncc(-c4ccc(C)cc4)n3)CC2)CC1", "note": "[Compound A HBr]", "values": [{"measurement": "Mean (SD) Change from Baseline at Week 8 in Automated Office-Measured Systolic Blood Pressure", "setting": "ACEi/ARB Yes", "value": "−15.75 (17.46) mmHg"}, {"measurement": "Mean (SD) Automated Office-Measured Diastolic Blood Pressure at Wk 8", "setting": "ACEi/ARBs No", "value": "78.75 (13.72) mmHg"}, {"measurement": "Mean (SD) Change from Baseline at Week 8 in Automated Office-Measured Diastolic Blood Pressure", "setting": "ACEi/ARBs No", "value": "−4.44 (10.67) mmHg"}, {"measurement": "Mean (SD) Automated Office-Measured Diastolic Blood Pressure at Wk 8", "setting": "ACEi/ARBs Yes", "value": "76.05 (8.09) mmHg"}, {"measurement": "Mean (SD) Change from Baseline at Week 8 in Automated Office-Measured Diastolic Blood Pressure", "setting": "ACEi/ARBs Yes", "value": "−9.50 (8.30) mmHg"}, {"measurement": "Mean (SD) Automated Office-Measured Diastolic Blood Pressure at Wk 8", "setting": "AHTs 2", "value": "76.40 (10.12) mmHg"}, {"measurement": "Mean (SD) Automated Office-Measured Systolic Blood Pressure at Wk 8", "setting": "AHTs 2", "value": "129.60 (13.98) mmHg"}, {"measurement": "Mean (SD) Change from Baseline at Week 8 in Automated Office-Measured Diastolic Blood Pressure", "setting": "AHTs 2", "value": "−7.03 (9.50) mmHg"}, {"measurement": "Mean (SD) Change from Baseline at Week 8 in Automated Office-Measured Systolic Blood Pressure", "setting": "AHTs 2", "value": "−10.28 (15.34) mmHg"}, {"measurement": "Mean (SD) Automated Office-Measured Diastolic Blood Pressure at Wk 8", "setting": "AHTs ≥3", "value": "77.88 (9.58) mmHg"}, {"measurement": "Mean (SD) Automated Office-Measured Systolic Blood Pressure at Wk 8", "setting": "AHTs ≥3", "value": "126.25 (13.56) mmHg"}, {"measurement": "Mean (SD) Change from Baseline at Week 8 in Automated Office-Measured Diastolic Blood Pressure", "setting": "AHTs ≥3", "value": "−10.63 (8.12) mmHg"}, {"measurement": "Mean (SD) Change from Baseline at Week 8 in Automated Office-Measured Systolic Blood Pressure", "setting": "AHTs ≥3", "value": "−20.44 (20.36) mmHg"}, {"measurement": "Mean (SD) Automated Office-Measured Diastolic Blood Pressure at Wk 8", "setting": "Age 65-79 yr", "value": "72.54 (8.04) mmHg"}, {"measurement": "Mean (SD) Automated Office-Measured Systolic Blood Pressure at Wk 8", "setting": "Age 65-79 yr", "value": "127.92 (13.82) mmHg"}, {"measurement": "Mean (SD) Change from Baseline at Week 8 in Automated Office-Measured Diastolic Blood Pressure", "setting": "Age 65-79 yr", "value": "−8.88 (9.23) mmHg"}, {"measurement": "Mean (SD) Change from Baseline at Week 8 in Automated Office-Measured Systolic Blood Pressure", "setting": "Age 65-79 yr", "value": "−15.15 (18.27) mmHg"}, {"measurement": "Mean (SD) Automated Office-Measured Diastolic Blood Pressure at Wk 8", "setting": "Age <65 yr", "value": "80.53 (9.93) mmHg"}, {"measurement": "Mean (SD) Automated Office-Measured Systolic Blood Pressure at Wk 8", "setting": "Age <65 yr", "value": "129.27 (14.04) mmHg"}, {"measurement": "Mean (SD) Change from Baseline at Week 8 in Automated Office-Measured Diastolic Blood Pressure", "setting": "Age <65 yr", "value": "−7.33 (9.30) mmHg"}, {"measurement": "Mean (SD) Change from Baseline at Week 8 in Automated Office-Measured Systolic Blood Pressure", "setting": "Age <65 yr", "value": "−11.47 (16.60) mmHg"}, {"measurement": "Mean (SD) Automated Office-Measured Diastolic Blood Pressure at Wk 8", "setting": "BMI 25−30 kg/m^2", "value": "80.27 (6.29) mmHg"}, {"measurement": "Mean (SD) Change from Baseline at Week 8 in Automated Office-Measured Diastolic Blood Pressure", "setting": "BMI 25−30 kg/m^2", "value": "−4.50 (8.75) mmHg"}, {"measurement": "Mean (SD) Automated Office-Measured Diastolic Blood Pressure at Wk 8", "setting": "BMI <25 kg/m^2", "value": "61.00 (NE) mmHg"}, {"measurement": "Mean (SD) Change from Baseline at Week 8 in Automated Office-Measured Diastolic Blood Pressure", "setting": "BMI <25 kg/m^2", "value": "−24.50 (NE) mmHg"}, {"measurement": "Mean (SD) Automated Office-Measured Diastolic Blood Pressure at Wk 8", "setting": "BMI >30 kg/m^2", "value": "76.07 (11.02) mmHg"}, {"measurement": "Mean (SD) Change from Baseline at Week 8 in Automated Office-Measured Diastolic Blood Pressure", "setting": "BMI >30 kg/m^2", "value": "−9.67 (8.59) mmHg"}, {"measurement": "Mean (SD) Automated Office-Measured Systolic Blood Pressure at Wk 8", "setting": "BMI at baseline 25-30 kg/m^2", "value": "136.64 (14.70) mmHg"}, {"measurement": "Mean (SD) Change from Baseline at Week 8 in Automated Office-Measured Systolic Blood Pressure", "setting": "BMI at baseline 25-30 kg/m^2", "value": "−2.45 (15.21) mmHg"}, {"measurement": "Mean (SD) Automated Office-Measured Systolic Blood Pressure at Wk 8", "setting": "BMI at baseline <25 kg/m^2", "value": "118.00 (NE) mmHg"}, {"measurement": "Mean (SD) Change from Baseline at Week 8 in Automated Office-Measured Systolic Blood Pressure", "setting": "BMI at baseline <25 kg/m^2", "value": "−38.00 (NE) mmHg"}, {"measurement": "Mean (SD) Automated Office-Measured Systolic Blood Pressure at Wk 8", "setting": "BMI at baseline >30 kg/m^2", "value": "124.13 (10.98) mmHg"}, {"measurement": "Mean (SD) Change from Baseline at Week 8 in Automated Office-Measured Systolic Blood Pressure", "setting": "BMI at baseline >30 kg/m^2", "value": "−19.27 (15.13) mmHg"}, {"measurement": "Mean (SD) Automated Office-Measured Diastolic Blood Pressure at Wk 8", "setting": "Race Black or AA", "value": "83.25 (8.88) mmHg"}, {"measurement": "Mean (SD) Automated Office-Measured Systolic Blood Pressure at Wk 8", "setting": "Race Black or AA", "value": "130.38 (14.12) mmHg"}, {"measurement": "Mean (SD) Change from Baseline at Week 8 in Automated Office-Measured Diastolic Blood Pressure", "setting": "Race Black or AA", "value": "−4.88 (8.84) mmHg"}, {"measurement": "Mean (SD) Change from Baseline at Week 8 in Automated Office-Measured Systolic Blood Pressure", "setting": "Race Black or AA", "value": "−12.31 (18.13) mmHg"}, {"measurement": "Mean (SD) Automated Office-Measured Diastolic Blood Pressure at Wk 8", "setting": "Race Other", "value": "74.25 (9.14) mmHg"}, {"measurement": "Mean (SD) Automated Office-Measured Systolic Blood Pressure at Wk 8", "setting": "Race Other", "value": "127.95 (13.83) mmHg"}, {"measurement": "Mean (SD) Change from Baseline at Week 8 in Automated Office-Measured Diastolic Blood Pressure", "setting": "Race Other", "value": "−9.33 (9.15) mmHg"}, {"measurement": "Mean (SD) Change from Baseline at Week 8 in Automated Office-Measured Systolic Blood Pressure", "setting": "Race Other", "value": "−13.53 (17.25) mmHg"}, {"measurement": "Mean (SD) Automated Office-Measured Diastolic Blood Pressure at Wk 8", "setting": "Seated SBP Tertile High", "value": "73.25 (8.33) mmHg"}, {"measurement": "Mean (SD) Change from Baseline at Week 8 in Automated Office-Measured Diastolic Blood Pressure", "setting": "Seated SBP Tertile High", "value": "−13.94 (7.82) mmHg"}, {"measurement": "Mean (SD) Automated Office-Measured Diastolic Blood Pressure at Wk 8", "setting": "Seated SBP Tertile Low", "value": "81.08 (9.65) mmHg"}, {"measurement": "Mean (SD) Change from Baseline at Week 8 in Automated Office-Measured Diastolic Blood Pressure", "setting": "Seated SBP Tertile Low", "value": "2.42 (8.22) mmHg"}, {"measurement": "Mean (SD) Automated Office-Measured Diastolic Blood Pressure at Wk 8", "setting": "Seated SBP Tertile Middle", "value": "74.00 (10.06) mmHg"}]}
